Laboratory results reported in patent publication US9023789B2, “Amylin analogs and pharmaceutical compositions thereof” (Novo Nordisk A/S, priority 2012, dated 2015).
Where two headings read alike, the source gives them in different places.

Key:
rat calcitonin receptor = target: T1, rat calcitonin receptor (Rattus norvegicus, UniProt P32214); assay: ASSAY (VIII) binding to the rat calcitonin receptor; conditions: Table 7, read-out: rCTR bind IC50
T1 construct: expressed in transfected cells; host or cells: BHK tk'ts 13 (transient, FuGENE 6), membranes
T1 sequence (P32214 25-479 isoform P32214-2 limits assumed): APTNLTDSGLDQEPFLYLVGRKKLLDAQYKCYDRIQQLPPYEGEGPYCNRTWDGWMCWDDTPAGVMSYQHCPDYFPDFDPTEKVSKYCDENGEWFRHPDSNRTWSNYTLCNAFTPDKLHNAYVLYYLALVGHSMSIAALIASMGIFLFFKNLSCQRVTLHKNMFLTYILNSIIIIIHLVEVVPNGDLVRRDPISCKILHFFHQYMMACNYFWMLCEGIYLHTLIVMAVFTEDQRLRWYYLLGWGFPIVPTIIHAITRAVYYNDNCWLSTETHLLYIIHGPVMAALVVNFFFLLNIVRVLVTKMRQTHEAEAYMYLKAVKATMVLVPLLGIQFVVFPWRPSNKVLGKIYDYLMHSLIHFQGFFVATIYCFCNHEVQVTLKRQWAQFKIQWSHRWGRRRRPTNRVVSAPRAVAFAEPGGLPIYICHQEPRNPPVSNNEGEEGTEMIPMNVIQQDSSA
Procedure, shortened: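 Transfect BHK tk′ts 13 cells transiently with rat calcitonin receptor, culture in DMEM containing 10% FBS, collect cells about 48 hours later, then prepare membranes.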

[1] = target: T2, human amylin receptor (membranes from Amylin 3(a)/CRE-luc cells) (Homo sapiens, UniProt O60896+P30988); assay: ASSAY (V) binding to the human amylin receptor (SPA, 125I-rat amylin);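 also: competition binding of cell membranes (35 ng/µL) mixed with SPA beads in 384-well plates at 40 µL total volume, read by scintillation counting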
T2 construct: expressed in transfected cells
T2 sequence (P30988 25-474): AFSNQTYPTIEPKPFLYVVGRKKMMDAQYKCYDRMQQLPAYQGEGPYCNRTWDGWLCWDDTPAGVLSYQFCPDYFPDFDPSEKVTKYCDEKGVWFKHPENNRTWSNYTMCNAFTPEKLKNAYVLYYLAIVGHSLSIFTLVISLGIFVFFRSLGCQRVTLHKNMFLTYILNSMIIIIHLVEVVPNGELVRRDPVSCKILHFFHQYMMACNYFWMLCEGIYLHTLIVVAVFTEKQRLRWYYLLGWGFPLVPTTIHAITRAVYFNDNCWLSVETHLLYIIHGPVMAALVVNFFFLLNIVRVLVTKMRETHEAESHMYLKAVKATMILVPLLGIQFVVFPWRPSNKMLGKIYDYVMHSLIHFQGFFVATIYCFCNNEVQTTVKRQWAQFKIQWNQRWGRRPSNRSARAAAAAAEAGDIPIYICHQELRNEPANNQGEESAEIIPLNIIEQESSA
T2 sequence (O60896 24-148 partner): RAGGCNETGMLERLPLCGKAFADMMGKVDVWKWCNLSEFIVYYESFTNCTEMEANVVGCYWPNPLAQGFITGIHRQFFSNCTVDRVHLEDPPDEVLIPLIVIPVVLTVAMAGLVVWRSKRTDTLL

[2] = target: T3, rat amylin receptor (rat calcitonin receptor + rat RAMP 3) (Rattus norvegicus, UniProt P32214+Q9JJ73); assay: ASSAY (VI) binding to the rat amylin receptor; conditions: for IC50: binding to rat amylin receptor, read-out: rAmylin-R bind IC50
T3 construct: expressed in transfected cells; host or cells: BHK tk'ts 13 (transient, FuGENE 6), membranes
T3 sequence (P32214 25-479 isoform P32214-2 limits assumed): T1 sequence (P32214 25-479 isoform P32214-2 limits assumed)
T3 sequence (Q9JJ73 23-147 partner): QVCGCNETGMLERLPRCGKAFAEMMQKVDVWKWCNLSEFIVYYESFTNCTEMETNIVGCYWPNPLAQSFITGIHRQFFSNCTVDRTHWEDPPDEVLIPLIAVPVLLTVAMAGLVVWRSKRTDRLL
Procedure, shortened: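 This assay measured binding to the rat amylin receptor. BHK tk′ts 13 cells were transiently transfected with the rat calcitonin receptor using FuGENE® 6 (Roche), following the manufacturer's recommendations. About 48 hours after transfection, the cells were harvested and membranes were prepared from them for the binding determination.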

[3] = ASSAY (IV) determination of solubility; assay type: physicochemical
Procedure, shortened: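 Polypeptide stock in water ([…]) was mixed 1:1 with 100 mM buffers: glycylglycine at pH 3.0, 4.0, 5.0 and bistrispropane at pH 6.0, 6.5, 7.0, 7.5, 8.0. After 18 hours at room temperature, samples were centrifuged and polypeptide concentration measured by UPLC.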

[4] = Table 5, selectivity, hCTR bind IC50 / hAmylin-R bind IC50
[5] = Table 5a, selectivity, hCTR bind IC50 / hAmylin-R bind IC50
[6] = Table 7, human binding selectivity, included for comparison
[7] = Table 7a (preferred compounds), human binding selectivity, included for comparison
[8] = ratio of human calcitonin receptor binding IC50 to human amylin receptor binding IC50
[9] = Table 7, rat binding selectivity, rCTR IC50 / rAmylin-R IC50
[10] = Table 7a (preferred compounds), rat binding selectivity, rCTR IC50 / rAmylin-R IC50
[11] = ratio of rCTR bind IC50 to rAmylin-R bind IC50
[12] = bistrispropane buffer, pH 6.5, read-out: Solubility pH 6.5 Concentration
[13] = bistrispropane buffer, pH 7.5, read-out: Solubility pH 7.5 Concentration
[14] = bistrispropane buffer, pH 6.0, read-out: Solubility pH 6.0 Concentration
[15] = bistrispropane buffer, pH 7.0, read-out: Solubility pH 7.0 Concentration
[16] = bistrispropane buffer, pH 8.0, read-out: Solubility pH 8.0 Concentration
[17] = glycylglycine buffer, pH 3.0, read-out: Solubility pH 3.0 Concentration
[18] = glycylglycine buffer, pH 4.0, read-out: Solubility pH 4.0 Concentration
[19] = glycylglycine buffer, pH 5.0, read-out: Solubility pH 5.0 Concentration

Compound	IC50 (rat calcitonin receptor)	Ratio hCT/hAmylin binding [1, 4]	Ratio hCT/hAmylin binding [1, 5]	Ratio hCT/hAmylin binding [1, 6]	Ratio hCT/hAmylin binding [1, 7]	Ratio hCT/hAmylin binding [1, 8]	IC50 ([2]; Table 7)	Ratio rCT/rAmylin binding [2, 9]	Ratio rCT/rAmylin binding [2, 10]	Ratio rCT/rAmylin binding [2, 11]	solubility at 18 h [3, 12]	solubility at 18 h [3, 13]	solubility at 18 h [3, 14]	solubility at 18 h [3, 15]	solubility at 18 h [3, 16]	solubility at 18 h [3, 17]	solubility at 18 h [3, 18]	solubility at 18 h [3, 19]	other results
CC[C@H](C)[C@H](NC(=O)[C@H](C)NC(=O)CNC(=O)[C@H](Cc1ccccc1)NC(=O)[C@H](CC(N)=O)NC(=O)[C@@H]1CCCN1C(=O)[C@H](CO)NC(=O)[C@H](CO)NC(=O)[C@H](Cc1c[nH]cn1)NC(=O)[C@H](CCCNC(=N)N)NC(=O)[C@H](CC(C)C)NC(=O)[C@H](Cc1ccccc1)NC(=O)[C@H](CC(N)=O)NC(=O)[C@H](C)NC(=O)[C@H](CC(C)C)NC(=O)[C@H](CCCNC(=N)N)NC(=O)[C@H](CCC(N)=O)NC(=O)[C@@H](NC(=O)[C@H](C)NC(=O)[C@@H]1CSSC[C@H](NC(=O)[C@@H](N)CCCCNC(=O)COCCOCCNC(=O)CC[C@H](NC(=O)CCCCCCCCCCCCCCCCCCC(=O)O)C(=O)O)C(=O)N[C@@H](CC(N)=O)C(=O)N[C@@H]([C@@H](C)O)C(=O)N[C@@H](C)C(=O)N[C@@H]([C@@H](C)O)C(=O)N1)[C@@H](C)O)C(=O)N1CCC[C@H]1C(=O)N[C@@H](CO)C(=O)N[C@@H](CO)C(=O)N[C@H](C(=O)N1CCC[C@H]1C(=O)N[C@H](C(=O)NCC(=O)N[C@@H](CO)C(=O)N[C@@H](CC(N)=O)C(=O)N[C@H](C(=O)N[C@@H](Cc1ccc(O)cc1)C(N)=O)[C@@H](C)O)C(C)C)[C@@H](C)O [Example 49]	51.4 nM	10.8	10.8	10.8	10.8	10.8	1.08 nM	47.7	47.7	47.7	≥ 200 µM	≥ 200 µM	≥ 200 µM	≥ 200 µM	≥ 200 µM	≥ 200 µM	≥ 200 µM	≥ 200 µM	
CC[C@H](C)[C@H](NC(=O)[C@H](C)NC(=O)CNC(=O)[C@H](Cc1ccccc1)NC(=O)[C@H](CC(N)=O)NC(=O)[C@@H]1CCCN1C(=O)[C@H](CO)NC(=O)[C@H](CO)NC(=O)[C@H](Cc1c[nH]cn1)NC(=O)[C@H](CCCNC(=N)N)NC(=O)[C@H](CC(C)C)NC(=O)[C@H](Cc1ccccc1)NC(=O)[C@H](CC(N)=O)NC(=O)[C@H](C)NC(=O)[C@H](CC(C)C)NC(=O)[C@H](CCCNC(=N)N)NC(=O)[C@H](CCC(N)=O)NC(=O)[C@@H](NC(=O)[C@H](C)NC(=O)[C@@H]1CSSC[C@H](NC(=O)[C@@H](N)CCCCNC(=O)COCCOCCNC(=O)CC[C@H](NC(=O)CCCCCCCCCCCCCCCCCCC(=O)O)C(=O)O)C(=O)N[C@@H](CC(N)=O)C(=O)N[C@@H]([C@@H](C)O)C(=O)N[C@@H](C)C(=O)N[C@@H]([C@@H](C)O)C(=O)N1)[C@@H](C)O)C(=O)N1CCC[C@H]1C(=O)N[C@@H](CO)C(=O)N[C@@H](CO)C(=O)N[C@H](C(=O)N[C@@H](CC(N)=O)C(=O)N[C@H](C(=O)NCC(=O)N1CCC[C@H]1C(=O)N[C@@H](CC(N)=O)C(=O)N[C@H](C(=O)N[C@@H](Cc1ccc(O)cc1)C(N)=O)[C@@H](C)O)C(C)C)[C@@H](C)O [Example 50]	5.63 nM	36.0	36.0	36.0	36.0	36.0	0.069 nM	81.7	81.7	81.7	≥ 200 µM	≥ 200 µM	≥ 200 µM	≥ 200 µM	≥ 200 µM	≥ 200 µM	≥ 200 µM	≥ 200 µM	IC50 ([1]; Table 4, read-out: hAmylin-R bind IC50): 0.038 nM; Ratio hCT/hAmylin binding ([1]; Table 5b, selectivity, hCTR bind IC50 / hAmylin-R bind IC50): 36.0; Ratio hCT/hAmylin binding ([1]; Table 5c, selectivity, hCTR bind IC50 / hAmylin-R bind IC50): 36.0
